Experiment [1] has as its target T1, Serine/threonine-protein kinase STK11 (Homo sapiens) (UniProt Q15831).
T1 sequence (whole entry): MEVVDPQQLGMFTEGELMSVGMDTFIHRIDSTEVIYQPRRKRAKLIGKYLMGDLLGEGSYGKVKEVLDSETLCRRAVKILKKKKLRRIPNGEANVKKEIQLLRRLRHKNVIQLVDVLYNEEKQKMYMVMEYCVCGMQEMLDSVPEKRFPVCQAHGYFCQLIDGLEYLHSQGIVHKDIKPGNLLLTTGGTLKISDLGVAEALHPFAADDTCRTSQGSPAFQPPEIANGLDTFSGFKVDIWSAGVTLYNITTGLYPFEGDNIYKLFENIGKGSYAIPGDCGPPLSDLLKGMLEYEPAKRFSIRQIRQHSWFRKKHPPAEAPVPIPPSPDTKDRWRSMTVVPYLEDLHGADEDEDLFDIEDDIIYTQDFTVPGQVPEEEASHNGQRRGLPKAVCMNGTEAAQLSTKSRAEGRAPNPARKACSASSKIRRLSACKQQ
As to the kind of experiment: Inhibition of LKB1 Lys2 labeling site in human A-375 cells at 5 uM by KiNativ Profiling analysis relative to control. It counts as cell-based.

Experiment [2] has as its target STE20-like serine/threonine-protein kinase (Homo sapiens) (UniProt Q9H2G2). The experiment can be described thus: Inhibition of SLK K2 labeling site harbouring DLKAGNILFTLDGDIK in human Huh-7 cells at 1 uM by KiNativ Profiling analysis relative to control. It counts as cell-based.
In experiment [3] the target is T2, Mitogen-activated protein kinase kinase kinase 5 (Homo sapiens) (UniProt Q99683).
T2 sequence (whole entry): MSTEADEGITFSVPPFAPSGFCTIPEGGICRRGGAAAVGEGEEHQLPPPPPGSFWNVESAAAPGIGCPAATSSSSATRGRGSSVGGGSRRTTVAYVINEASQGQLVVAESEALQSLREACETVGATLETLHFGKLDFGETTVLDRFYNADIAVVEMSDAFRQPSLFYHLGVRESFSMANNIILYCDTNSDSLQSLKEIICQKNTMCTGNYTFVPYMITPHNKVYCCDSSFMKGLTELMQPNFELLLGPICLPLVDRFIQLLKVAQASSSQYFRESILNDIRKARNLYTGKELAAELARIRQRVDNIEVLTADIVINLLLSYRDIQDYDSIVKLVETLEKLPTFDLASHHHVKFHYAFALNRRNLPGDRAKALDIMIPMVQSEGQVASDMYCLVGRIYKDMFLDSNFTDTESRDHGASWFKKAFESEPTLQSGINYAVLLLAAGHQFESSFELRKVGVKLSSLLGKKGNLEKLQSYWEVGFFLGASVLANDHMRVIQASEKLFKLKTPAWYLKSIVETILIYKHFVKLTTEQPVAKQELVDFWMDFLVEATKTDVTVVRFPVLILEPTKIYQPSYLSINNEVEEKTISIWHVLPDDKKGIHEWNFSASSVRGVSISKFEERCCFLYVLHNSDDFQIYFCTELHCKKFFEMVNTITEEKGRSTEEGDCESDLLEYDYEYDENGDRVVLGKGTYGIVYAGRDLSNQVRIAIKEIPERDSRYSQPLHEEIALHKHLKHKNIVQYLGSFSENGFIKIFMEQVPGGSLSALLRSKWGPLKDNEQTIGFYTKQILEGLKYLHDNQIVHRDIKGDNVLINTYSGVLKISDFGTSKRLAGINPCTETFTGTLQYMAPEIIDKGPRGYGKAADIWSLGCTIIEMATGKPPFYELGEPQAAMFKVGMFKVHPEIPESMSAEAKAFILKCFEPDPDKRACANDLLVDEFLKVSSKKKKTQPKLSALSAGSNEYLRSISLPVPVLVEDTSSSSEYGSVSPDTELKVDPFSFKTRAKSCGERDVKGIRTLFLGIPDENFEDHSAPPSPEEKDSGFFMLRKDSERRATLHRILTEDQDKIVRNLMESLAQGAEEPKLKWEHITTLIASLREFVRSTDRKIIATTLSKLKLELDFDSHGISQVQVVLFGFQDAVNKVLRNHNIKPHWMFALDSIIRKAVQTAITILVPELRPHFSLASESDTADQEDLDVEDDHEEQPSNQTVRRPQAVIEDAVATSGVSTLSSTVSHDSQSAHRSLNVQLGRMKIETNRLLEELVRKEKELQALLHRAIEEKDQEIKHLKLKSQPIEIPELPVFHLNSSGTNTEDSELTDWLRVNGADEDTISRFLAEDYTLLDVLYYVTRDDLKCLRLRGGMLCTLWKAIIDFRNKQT
The experiment can be described thus: Inhibition of MAP3K5 Lys2 labeling site in human A-375 cells at 0.05 uM by KiNativ Profiling analysis relative to control. In kind it is cell-based.

Experiment [4] addresses T3, Receptor-interacting serine/threonine-protein kinase 4 (Homo sapiens) (UniProt P57078).
T3 sequence (whole entry): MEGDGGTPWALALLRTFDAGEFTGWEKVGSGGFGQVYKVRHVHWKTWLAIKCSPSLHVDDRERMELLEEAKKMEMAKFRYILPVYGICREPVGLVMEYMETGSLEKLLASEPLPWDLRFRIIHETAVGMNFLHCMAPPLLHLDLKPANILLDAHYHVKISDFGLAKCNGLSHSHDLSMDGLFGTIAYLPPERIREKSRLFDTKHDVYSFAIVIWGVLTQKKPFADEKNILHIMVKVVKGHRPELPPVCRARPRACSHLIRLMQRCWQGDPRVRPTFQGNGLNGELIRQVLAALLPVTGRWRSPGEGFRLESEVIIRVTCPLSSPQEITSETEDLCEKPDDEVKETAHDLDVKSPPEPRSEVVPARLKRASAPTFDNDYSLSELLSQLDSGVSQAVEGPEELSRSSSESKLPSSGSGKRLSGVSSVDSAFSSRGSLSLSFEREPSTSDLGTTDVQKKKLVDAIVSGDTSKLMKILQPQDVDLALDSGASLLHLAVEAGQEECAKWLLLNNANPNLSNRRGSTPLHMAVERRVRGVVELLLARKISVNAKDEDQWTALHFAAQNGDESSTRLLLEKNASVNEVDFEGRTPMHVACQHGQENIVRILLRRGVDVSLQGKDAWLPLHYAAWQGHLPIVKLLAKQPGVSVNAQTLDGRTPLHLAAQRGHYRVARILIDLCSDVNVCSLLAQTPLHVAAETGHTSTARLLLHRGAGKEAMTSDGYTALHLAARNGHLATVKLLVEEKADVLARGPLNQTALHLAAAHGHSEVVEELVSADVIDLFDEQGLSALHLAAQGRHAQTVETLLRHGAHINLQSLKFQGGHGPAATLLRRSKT
The experiment can be described thus: Inhibition of RIPK4 (unknown origin) at 10 uM by Ambit Kinomescan binding assay.

Experiment [5] deals with Serine/threonine-protein kinase Nek7 (Homo sapiens) (UniProt Q8TDX7). As to the kind of experiment: Inhibition of NEK7 Lys2 labeling site harbouring DIKPANVFITATGVVK in human Huh-7 cells at 1 uM by KiNativ Profiling analysis relative to control. It counts as cell-based.
Sequence of Serine/threonine-protein kinase Nek7 (Homo sapiens) (Q8TDX7 whole entry, looked up): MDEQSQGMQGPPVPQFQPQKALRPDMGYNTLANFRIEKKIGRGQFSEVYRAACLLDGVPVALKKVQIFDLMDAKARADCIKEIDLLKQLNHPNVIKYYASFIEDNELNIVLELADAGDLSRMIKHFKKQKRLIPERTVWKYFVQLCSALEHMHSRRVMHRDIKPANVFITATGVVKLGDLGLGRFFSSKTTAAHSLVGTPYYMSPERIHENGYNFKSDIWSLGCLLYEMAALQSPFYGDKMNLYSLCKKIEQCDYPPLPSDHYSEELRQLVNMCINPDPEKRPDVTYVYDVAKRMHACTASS
Experiment [6] concerns the target Serine/threonine-protein kinase 38 (Homo sapiens) (UniProt Q15208). As to the kind of experiment: Inhibition of NDR1 Lys1 labeling site in human Huh-7 cell lysate at 1 uM by KiNativ Profiling analysis relative to control. It counts as subcellular.

For orientation: inhibition means the relative decrease from the control value, in per cent.

Calls of active or inactive are those of the source. The calls are words filed in the database; no cut-off is given here.

Sequence of STE20-like serine/threonine-protein kinase (Homo sapiens) (Q9H2G2 whole entry, looked up): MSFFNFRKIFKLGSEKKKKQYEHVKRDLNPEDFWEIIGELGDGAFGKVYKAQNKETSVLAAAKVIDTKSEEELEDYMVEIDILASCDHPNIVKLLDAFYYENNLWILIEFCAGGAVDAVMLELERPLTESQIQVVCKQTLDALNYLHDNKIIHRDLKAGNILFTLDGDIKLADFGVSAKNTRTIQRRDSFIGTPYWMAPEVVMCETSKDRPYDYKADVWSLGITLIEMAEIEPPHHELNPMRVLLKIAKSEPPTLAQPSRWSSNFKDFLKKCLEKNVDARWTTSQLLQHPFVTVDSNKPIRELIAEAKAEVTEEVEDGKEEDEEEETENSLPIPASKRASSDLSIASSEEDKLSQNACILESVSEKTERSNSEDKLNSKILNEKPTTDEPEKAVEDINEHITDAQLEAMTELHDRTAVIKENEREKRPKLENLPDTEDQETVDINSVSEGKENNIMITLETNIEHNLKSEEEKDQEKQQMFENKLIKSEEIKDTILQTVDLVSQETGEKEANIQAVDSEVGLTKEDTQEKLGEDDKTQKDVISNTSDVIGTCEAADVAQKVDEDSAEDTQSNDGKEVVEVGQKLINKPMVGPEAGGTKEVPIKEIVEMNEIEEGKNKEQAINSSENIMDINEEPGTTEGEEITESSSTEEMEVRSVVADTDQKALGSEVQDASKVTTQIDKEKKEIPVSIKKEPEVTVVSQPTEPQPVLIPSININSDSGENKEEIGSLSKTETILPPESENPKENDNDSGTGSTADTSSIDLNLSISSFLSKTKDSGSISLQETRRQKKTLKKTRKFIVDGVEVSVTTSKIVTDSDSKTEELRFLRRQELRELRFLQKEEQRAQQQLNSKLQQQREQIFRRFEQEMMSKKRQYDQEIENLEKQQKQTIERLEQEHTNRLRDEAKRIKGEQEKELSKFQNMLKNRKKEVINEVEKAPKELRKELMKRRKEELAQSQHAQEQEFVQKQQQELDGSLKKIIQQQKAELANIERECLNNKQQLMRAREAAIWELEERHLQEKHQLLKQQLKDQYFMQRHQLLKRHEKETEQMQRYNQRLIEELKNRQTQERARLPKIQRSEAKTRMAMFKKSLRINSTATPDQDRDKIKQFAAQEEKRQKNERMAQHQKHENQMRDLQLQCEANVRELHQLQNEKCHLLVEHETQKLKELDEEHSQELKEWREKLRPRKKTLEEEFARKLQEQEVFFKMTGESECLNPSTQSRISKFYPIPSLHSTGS
Sequence of Serine/threonine-protein kinase 38 (Homo sapiens) (Q15208 2-465 limits assumed): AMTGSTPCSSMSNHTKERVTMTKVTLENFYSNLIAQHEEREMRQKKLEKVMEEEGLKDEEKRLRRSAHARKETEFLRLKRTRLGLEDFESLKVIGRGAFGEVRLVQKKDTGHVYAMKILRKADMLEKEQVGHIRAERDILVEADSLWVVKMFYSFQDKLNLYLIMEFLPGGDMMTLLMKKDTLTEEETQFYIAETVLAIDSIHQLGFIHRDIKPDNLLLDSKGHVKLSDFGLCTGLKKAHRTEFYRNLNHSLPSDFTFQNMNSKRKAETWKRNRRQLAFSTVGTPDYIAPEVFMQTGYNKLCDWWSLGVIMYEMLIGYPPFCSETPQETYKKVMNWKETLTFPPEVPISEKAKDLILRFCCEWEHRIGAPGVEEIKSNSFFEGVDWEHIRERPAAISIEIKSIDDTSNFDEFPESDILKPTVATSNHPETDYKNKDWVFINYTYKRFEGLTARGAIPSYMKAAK

On to `CCN1CCN(Cc2ccc(NC(=O)c3ccc(C)c(/C=C/c4cnc5[nH]ccc5c4OC)c3)cc2C(F)(F)F)CC1`, for which, in experiment [1], the inhibition was determined as 28.7%.
As to `CCN1CCN(Cc2ccc(NC(=O)c3ccc(C)c(Oc4ccnc5[nH]ccc45)c3)cc2C(F)(F)F)CC1`, the values for the inhibition in experiment [2] and in experiment [3] were 66.5% and -6.6%, respectively. Besides, the inhibition entry in experiment [4] is “inactive”.
For `CNc1cc(Oc2cc(C(=O)Nc3cc(N4CCN(C)CC4)cc(C(F)(F)F)c3)ccc2C)ncn1`, the inhibition was -2.7% in experiment [5] and 9.5% in experiment [6].

These data come from ChEMBL document CHEMBL5696442, “Discovery of type II inhibitors of TGFβ-activated kinase 1 (TAK1) and mitogen-activated protein kinase kinase kinase kinase 2 (MAP4K2)” (J Med Chem, 2015).
